Reference: patent US5635514A, “Heteroaralkyl and heteroarylthioalkyl thiophenolic compounds as 5-lipoxgenase inhibitors” (G. D. Searle & Company, priority 1994, dated 1997)

Legend:
[1] = biological target: T1, Human recombinant 5-lipoxygenase (Homo sapiens, UniProt P09917); test: Recombinant 5-Lipoxygenase Inhibition Assay; assay type: biochemical; conditions: 25° C., 8 minutes, absorbance at 240 nm
T1 construct: made in house; host or cells: E. coli
T1 sequence (P09917 1-674): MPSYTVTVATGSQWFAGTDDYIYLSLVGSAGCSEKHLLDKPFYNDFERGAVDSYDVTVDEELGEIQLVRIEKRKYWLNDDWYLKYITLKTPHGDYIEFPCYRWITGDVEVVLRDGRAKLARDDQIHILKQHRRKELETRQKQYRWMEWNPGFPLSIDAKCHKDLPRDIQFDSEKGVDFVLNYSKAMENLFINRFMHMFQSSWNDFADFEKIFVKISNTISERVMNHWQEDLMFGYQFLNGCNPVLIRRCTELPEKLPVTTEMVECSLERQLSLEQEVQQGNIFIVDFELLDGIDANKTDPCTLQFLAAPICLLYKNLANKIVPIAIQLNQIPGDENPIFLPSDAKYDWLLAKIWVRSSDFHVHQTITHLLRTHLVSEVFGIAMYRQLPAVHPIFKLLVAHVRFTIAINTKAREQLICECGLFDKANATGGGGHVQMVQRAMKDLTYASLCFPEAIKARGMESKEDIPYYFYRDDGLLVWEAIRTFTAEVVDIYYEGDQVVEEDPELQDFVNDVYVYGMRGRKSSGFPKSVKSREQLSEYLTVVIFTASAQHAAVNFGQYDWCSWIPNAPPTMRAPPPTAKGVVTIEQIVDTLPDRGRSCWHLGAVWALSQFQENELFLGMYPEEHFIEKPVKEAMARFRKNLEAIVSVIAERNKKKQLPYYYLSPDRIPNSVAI
Experimental: The compounds of the present invention were evaluated with respect to 5-lipoxygenase inhibition according to the Recombinant 5-Lipoxygenase Inhibition Assay described below.
Human 5-lipoxygenase expressed in E. coli as a soluble protein was prepared in the manner described by M. Noguchi et al., "Expression of Human 5-Lipoxygenase cDNA in E. coli," FEBS Letters, Vol. 249, No. 2, 267-270 (1989), which is incorporated herein by reference. The human 5-lipoxygenase was partially purified by ion exchange chromatography and stored in 50 mM Tris-HCl buffer (pH 8.1) containing 150 mM NaCl, 2 mM EDTA, 2 mM DTT, and 50% glycerol at -70° C. before use.
The following solutions were prepared as indicated: CaCl2 /ATP, 12.5 mM CaCl2 and 5 mM ATP in H2 O; arachidonic acid, 4 mM in ethanol; potassium phosphate buffer, 50 mM potassium phosphate and 0.1 mM EDTA, pH 7.2. Test compounds were first prepared at 10 mM in DMSO and further diluted to desirable concentrations with DMSO.
The assay was carried out in a quartz cuvette to which 15 μl CaCl2 /ATP, 7.5 μl arachidonic acid, 7.5 μl ethanol or test compound, and 710 μl potassium phosphate buffer, in that order, were added and mixed. The mixture was prewarmed to 25° C. The enzymatic reaction was started by adding 10 μl of 5-lipoxygenase enzyme (~0.2 mg protein), and the formation of the reaction product 5-HPETE/5-HETE at 25° C. for 8 minutes was determined by measuring the increase in the absorbance at 240 nm using a Beckman DU-7 spectrophotometer.
The results for this assay are expressed in terms of activity with respect to 5-lipoxygenase inhibition as an IC50 value (50% inhibitory concentration).

[2] = system: LTB4 production by calcium ionophore stimulated human blood; test: Human Whole Blood LTB4 Assay (calcium ionophore stimulated LTB4 production); assay type: cell-based; conditions: calcium ionophore A23187, LTB4
Experimental: (§1) (c) LTB4 and Thromboxane Production by Calcium Ionophore Stimulated Human Blood--Human Whole Blood LTB4 Assay
(§2) The compounds of the present invention were evaluated with respect to 5-lipoxygenase inhibition according to the Human Whole Blood LTB4 Assay described below.
(§3) Human whole blood was collected in heparin containing Vacutainer brand tubes. The blood was diluted with RPMI-1640 cell culture media [1:4] (Gibco, Grand Island, N.Y.) and 200 microliters were added per well in 96 well microtiter plates. Compounds of the present invention diluted in dimethylsulfoxide were added to the blood and allowed to incubate for 15 minutes at 37° C. in a humidified incubator. Calcium ionophore A23187 [20 mcg/ml final concentration, Sigma Chemical Co., St. Louis, Mo.] was added, and the incubation was continued for 10 minutes. The incubation was terminated by centrifugation [833 g, 10 minutes at 4° C.]. Supernatants were analyzed for LTB4 and thromboxane by commercially available enzyme-linked immunoassays [Caymen Chemical Co., Ann Arbor, Mich.]. Test compounds which inhibit 5-lipoxygenase in this assay inhibit the formation of LTB4 and cause reduced levels of this agent in the supernatant.
(§4) The results of this assay are expressed in terms of activity with respect to 5-lipoxygenase inhibition as an IC50 value (50% inhibitory concentration).

[3] = system: Thromboxane production by calcium ionophore stimulated human blood; test: Human Whole Blood Assay, thromboxane production (calcium ionophore stimulated); assay type: cell-based; conditions: calcium ionophore A23187, thromboxane
Experimental: as §1, §2, §3, §4

[4] = system: TPA-induced ear inflammation (Mouse, Ear); test: Tetradecanoylphorbol Acetate (TPA) Assay (TPA-induced mouse ear inflammation); assay type: in vivo; conditions: 50 mpk, ip + 120 minute; for TPA Edema (% Inhibition): ear thickness
Experimental: The compounds of the present invention were evaluated with respect to 5-lipoxygenase inhibition according to the Tetradecanoylphorbol Acetate (TPA) Assay which is described in Rao et al., "Comparative Evaluation of Arachidonic Acid (AA)--And Tetradecanoylphorbol Acetate (TPA)-Induced Dermal Inflammation." Inflammation, Vol. 17, No. 6, 723-741 (1993), which is incorporated herein by reference.
In this study, selective 5-lipoxygenase inhibitors, such as zileuton, MK-886, LTB4 and LTD4 receptor […] were evaluated in acute inflammatory responses elicited by the topical application of TPA to the ears of mice. The increases in edema and myeloperoxidase (MPO) were used as readouts of inflammatory responses.
Animals. Female BALB/c mice (17-25 g; Jackson Labs, Bar Barbor, Me.) or male Swiss Webster mice (Charles River, Portage, Mich.) were used in the studies. The animals were housed in a vivarium with a 12-hour lighting schedule (0600-1800 hours on) with free access to food and water. Housing and experimental procedures were conducted according to institutionally approved (Monsanto, St. Louis, Mo. and National Institute of Health) guidelines.
Drugs and Reagents. Hexadecyltrimethylammonium bromide (HTAB), and TPA were purchased from Sigma Chemical Co. (St. Louis, Mo.). Human polymorphonuclear leukocyte myeloperoxidase (20 units/mg protein) was obtained from Calbiochem (San Diego, Calif.). One unit of MPO was defined as the activity of the enzyme that oxidizes 1 μmol of hydrogen peroxide per minute at 25° C.
TPA Inflammation Model. […] Four hours following the application of TPA, increases in ear thickness were measured and ears were excised for MPO measurements.
Measurement of MPO. […] The rate of change of absorbance was monitored in kinetic mode by a plate reader (Molecular Devices, Menlo Park, Calif.). Levels of MPO in lavage samples were determined from the calibration curves using human neutrophil MPO as the reference standard. The levels of MPO were expressed as milliunits per ear. […]

SMILES | IC50 [1] | IC50 [2] | IC50 [3] | TPA Edema (% Inhibition) [4] | TPA MPO (% Inhibition) ([4]; myeloperoxidase)
CC(C)(C)c1cc(SCCn2ccc3ncnc-3c2)cc(C(C)(C)C)c1O [Compound 8, 2,6-bis(1,1-dimethylethyl)-4-[[2-(5H-imidazo-[4,5-c]pyridin-5-yl)ethyl]thio]phenol Hydrate] | 4480 ± 360 nM |  |  |  | 
CC(C)(C)c1cc(SCCCn2cnc3cnccc32)cc(C(C)(C)C)c1O [Compound 16, 2,6-bis(1,1-dimethylethyl)-4-[[3-(1H-imidazo[4,5-c]pyridin-1-yl)propyl]thio]phenol] | 340 ± 100 nM |  |  |  | 
CC(C)(C)c1cc(SCCCCn2ccc3ncnc-3c2)cc(C(C)(C)C)c1O [Compound 14, 2,6-bis(1,1-dimethylethyl)-4-[[4-(5H-imidazo-[4,5-c]pyridin-5-yl)butyl]thiophenol Hydrate] | 410 ± 20 nM |  |  |  | 
CC(C)(C)c1cc(SCCCn2ccc3ncnc-3c2)cc(C(C)(C)C)c1O [Compound 5, 2,6-bis(1,1-dimethylethyl)-4-[[3-(5H-imidazo-[4,5-c]pyridin-5-yl)propyl]thio]phenol] | 570 ± 70 nM | 13.3 µM | 50 µM | 42% | 24%
CC(C)(C)c1cc(SCCCn2cnc3ccncc32)cc(C(C)(C)C)c1O [Compound 15, 2,6-bis(1,1-dimethylethyl)-4-[[3-(1H-imidazo[5,4-c]pyridin-1-yl]propyl]thio]phenol] | 490 ± 40 nM | 6.27 µM | 14.4 µM |  | 

Now from value to compound, other results behind:

IC50 [1] | IC50 [2] | IC50 [3] | SMILES | TPA Edema (% Inhibition) [4] | TPA MPO (% Inhibition) ([4]; myeloperoxidase)
480 ± 90 nM |  |  | CC(C)(C)c1cc(SCCCn2ccc3ccccc32)cc(C(C)(C)C)c1O [Compound 24, 2,6-bis(1,1-dimethylethyl)-4-[[3-(1H-indol-1-yl)propyl]thio]phenol Hydrate] |  | 
930 ± 160 nM | 11.1 µM | 9.1 µM | CC(C)(C)c1cc(SCCSc2nc3ccccc3o2)cc(C(C)(C)C)c1O [Compound 26, 2,6-bis(1,1-dimethylethyl)-4-[[2-[(1,3-benzoxazol-2-yl)thio]ethyl]thio]phenol Hydrate] |  | 
1100 ± 230 nM | 7.42 µM | 37.3 µM | CC(C)(C)c1cc(SCC(O)Cn2ccc3ncnc-3c2)cc(C(C)(C)C)c1O (racemic) [Compound 27, (±) 2,6-bis(1,1-dimethylethyl)-4-[[2-hydroxy-3-(5H-imidazo[4,5-c]pyridin-5-yl]propylthio]phenol Hydrate] | 46% | 
140 ± 20 nM | 2.26 µM | 18.6 µM | CC(C)(C)c1cc(SCCCn2cnc3ccccc32)cc(C(C)(C)C)c1O [Compound 21, 2,6-bis(1,1-dimethylethyl)-4-[[3-(1H-benzimidazol-1-yl)propyl]thio]phenol] |  | 
1800 ± 300 nM | 20.1 µM | 50 µM | CC(C)(C)c1cc(SCc2nc3cccnc3[nH]2)cc(C(C)(C)C)c1O [Compound 29, 2,6-bis(1,1-dimethylethyl)-4-[[(3H-imidazo-[4,5-b]pyridin-2-yl)methyl]thio]phenol] |  | 
320 ± 20 nM |  |  | CC(C)(C)c1cc(SCCCn2cnc3cccnc32)cc(C(C)(C)C)c1O [Compound 18, (2,6-bis(1,1-dimethylethyl)-4-[[3-(1H-imidazo[5,4-b]pyridin-1-yl)propyl]thio]phenol Hydrate] |  | 
360 ± 70 nM | 6.62 µM | > 39 µM | CC(C)(C)c1cc(SCCCn2cnc3ncccc32)cc(C(C)(C)C)c1O [Compound 19, 2,6-bis(1,1-dimethylethyl)-4-[[3-1H-imidazo[4,5-b]pyridin-1-yl)propyl]thio]-phenol Hydrate] |  | 
